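Where inhibition never reached the appropriate level, the endpoint shown equals the highest concentration tested. Otherwise, values were interpolated linearly from a five-concentration, 48-hour dose response in 96-well plates. GI50 marks 50% less growth. TGI: total growth inhibition.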 Some results are limits rather than exact numbers.

Experiment in all cases: DTP human tumour cell line panel, 48 h
The test system of assay [1] is HT29 colon.
The test system of assay [2] is IGROV1 ovarian.
Assay [3] relates to U251 CNS.
Assay [4] has as its system LOX IMVI melanoma.
For assay [5], the system named is HCT-116 colon.
Assay [6] relates to NCI-H522 lung.
Assay [7] deals with UO-31 renal.
Assay [8] concerns HS 578T breast.
Assay [9] concerns SNB-75 CNS.
The subject of assay [10] is MOLT-4 leukemia.

Broadly, the TGI is the concentration at which net growth stops. Lower therefore signals more potent growth arrest. As to `CCOC(=O)CC[C@H](NC(=O)[C@H](N)Cc1ccc(N(CCCl)CCCl)cc1)C(=O)OCC`, the TGI was more than 78 µM in assay [1]; more than 65.7 µM in [2]; more than 59.2 µM in assay [3]; 41.6 µM in assay [4]; more than 68 µM in assay [5]; 18.3 µM in assay [6]. Also, the TGI was found to be 29.8 µM in [7], 52.7 µM in assay [8], 35.3 µM in [9] and 6.85 µM in [10].

On to `CC(=O)c1[nH]c(NCc2ccccc2)c(C(=S)Nc2ccccc2)c1N`, for which the TGI in assay [1] was more than 100 µM; in [2] it was 14.1 µM; in assay [3], 32.7 µM; in assay [4], 32.8 µM; in assay [5] it was 34.1 µM; in assay [6], 0.166 µM. In addition, the TGI in assay [7] was 6.34 µM; in assay [8] it was 58.9 µM; in assay [9], more than 100 µM; in [10], more than 100 µM.

With `Cc1[nH]nc(C(F)(F)F)c1N=NN1CCOCC1`, the TGI in assay [1] turned out to be 16.8 µM; in assay [2], 22.6 µM; in [3], 27.7 µM; in assay [4] it was 18.3 µM; in [5], 6.12 µM; in assay [6], 8.7 µM. Also, the TGI in assay [7] was found to be 7.04 µM; in assay [8], 40.5 µM; in assay [9], 26.7 µM; in [10], 5.32 µM.

Take `CC1CCC(=O)C(C(=O)CC2CC(=O)N(C)C(=O)C2)C1` (stereo not drawn): the TGI in assay [1], in assay [2], in assay [3], in [4], in assay [5] and in assay [6] was more than 100 µM throughout. The TGI in [7], in assay [8], in [9] and in [10] was more than 100 µM each time.

With `COc1ccc(/C=C2\N=C(SC)N(CN3CCOCC3)C2=O)cc1`, the TGI in assay [1], in [2], in [3], in assay [4], in assay [5] and in assay [6] was more than 100 µM in each case. In addition, the TGI in assay [7], in assay [8], in [9] and in assay [10] was more than 100 µM throughout.

Regarding `O=[N+]([O-])/C(C(Cl)=C(Cl)Cl)=C(/Cl)Sc1ccccc1`, the TGI in [1] worked out at 6.12 µM; in assay [2], 4.69 µM; in assay [3] it was 5.04 µM; in assay [4] it was 3.65 µM; in assay [5], 2.58 µM; in [6] it was 4.42 µM. In addition, the TGI in assay [7] came out at 3.02 µM; in [8], 7.14 µM; in [9] it was 28.8 µM; in [10] it was 1.23 µM.

Take `O=C(O)C(NCc1ccccc1)C(NCc1ccccc1)C(=O)O` (stereo not drawn): the TGI in assay [1], in assay [2], in assay [3], in assay [4], in assay [5] and in assay [6] was more than 100 µM in each case. Moreover, the TGI in assay [7], in assay [8], in [9] and in [10] was more than 100 µM in each case.

`CN1CCN(C(=S)N2CCN(C)CC2)CC1`: the TGI in [1] was 5.86 µM; in assay [2], more than 100 µM; in assay [3], more than 100 µM; in [4], more than 100 µM; in assay [5], more than 100 µM; in assay [6], more than 45.6 µM. Besides, the concentration for total growth inhibition (TGI) was more than 100 µM in assay [7], more than 100 µM in assay [8], more than 26.3 µM in assay [9] and more than 100 µM in assay [10].

On to `CN(C)CCCC12CCCCC1=Nc1ccccc12` (stereo not drawn), for which the TGI in [1], in [2], in assay [3], in assay [4], in [5] and in assay [6] was more than 100 µM each time. Besides, the TGI in assay [7], in [8], in [9] and in assay [10] was more than 100 µM each time.

A word on the GI50: it is the concentration at which growth is held to half of that of the control. Regarding `CCC(/C=C/C1OC(=O)C=CC1C)=C\C(C)C/C=C/C(C)=C/C(C)C(=O)C(C)C(O)C(C)C/C(C)=C/C(=O)O` (stereo not drawn), the GI50 was 4.95 µM in assay [1]; 7.48 pM in assay [2]; less than 1 pM in assay [3]; less than 1 pM in assay [5]; 6.22 pM in assay [6]; 0.0312 nM in assay [7]. Also, in assay [10], the GI50 is 2.33 pM. The TGI in [1] was 13 µM; in assay [2] it was 16 µM; in assay [3], 5.89 µM; in assay [4], 0.00119 µM; in assay [8], 0.000594 µM; in [9] it was 7.17 µM.

Take `Cn1c(=O)c2c(nc(Cc3ccccc3)n2CC(=O)O)n(C)c1=O`: the TGI in assay [1], in [2], in assay [3], in assay [4], in assay [5] and in assay [6] was more than 100 µM each time. Moreover, the TGI in [7], in [8], in assay [9] and in [10] was more than 100 µM throughout.
